What was measured:
[1] = Hydrolysis in blank receptor solution; assay type: physicochemical; details: 40% w/v polyethylene glycol 400/normal saline, 37° C., time course of permeation experiment
Excerpt: (§1) The freshly excised hairless mouse skin was used in the two-compartment diffusion cell method of Chlen et at., Drug Development and Industrial Pharmacy, 11, […] (1985). The hairless mouse (HRS/J strain) was sacrificed just prior to the experiment by cervical dislocation. A square section of the abdominal skin was surgically removed and mounted between two side-by-side half cells; the exposed area of the skin being approximately 0.64 cm^2. A 1-10% weight/volume (w/v) solution of inocoterone acetate and vehicle was added to the donor compartment and a 40% w/v polyethylene glycol 400/normal saline solution was added to the receptor compartment. Simultaneous skin permeation and biotransformation studies Were conducted in a thermostated diffusion cell apparatus at 37° C. At appropriate intervals samples were withdrawn from the receptor compartment and analyzed for inocoterone acetate and its metabolite, inocoterone, by high pressure liquid chromatography. […] Each experiment was carried out in at least triplicate. This method was used in Examples 3 to 6.

rat sebaceous gland = assay: In vivo antiandrogen activity test, rat: volume density of smooth endoplasmic reticulum of the sebaceous gland
[2] = In vitro skin permeation and metabolism of Carbopol 940 gels, Franz diffusion cell (Example 13); assay type: in vitro ADME, hairless mouse; details: for metabolised at 5 h: mouse, read-out: % Metabolite; for Transdermal Flux Q1, Inocoterone: metabolite
Description: For the evaluation of pharmaceutical compositions of the present invention, the freshly excised hairless mouse skin was used in the diffusion cell method of Franz, Current Problems in Dermatology, 7, 58-68 (1978), in a vertical position, the exposed area of the skin being approximately 1.8 cm^2. The pharmaceutical formulation of known concentration in vehicle was added to the upper compartment of the cell, which was exposed to the stratum corneum side of the skin, and a 40% polyethylene glycol 400/normal saline solution was placed in the lower compartment The penetration and metabolism rates were studied in a thermostated diffusion cell at 37° C. using the analytical method described above. Each experiment was carried out in at least triplicate. This method was used in Examples 7 and 13.
In this example the simultaneous skin permeation and metabolism rates of inocoterone acetate incorporated in the Carbopol 940 gels formulated using the compositions described in Example 7 are shown.

prostate = assay: In vivo antiandrogen activity test, rat: prostate (systemic effect)
[3] = In vitro skin permeation and metabolism, two-compartment diffusion cell (Example 6); assay type: in vitro ADME, hairless mouse (HRS/J strain); details: for metabolised at 5 h: mouse, of total permeated, read-out: % Metabolite; for Transdermal Flux Q1, Inocoterone: metabolite from applied inocoterone acetate
Excerpt: as §1
Compositions of 10% w/v of inocoterone acetate in vehicle solutions were prepared by dissolving 1 g of the medicament in 10 ml of a mixture of isopropyl myristate and 95% ethanol in the following volume percent ratios: 100:0, 95:5, 70:30, 60:40, 50:50, 40:60, 30:70, 5:95 and 0:100, respectively. The in vitro skin permeation and metabolism rates were measured using the method described under the in vitro skin permeation test method. The results of these measurements, in terms of the cumulative mount of unchanged medicament and its metabolite permeated in μmoles per square centimeter with time, over 5 hours are given in FIG. 1.
In this example, the results of the use of ethanol as the polar organic solvent in combination with various fatty acid esters for the simultaneous skin permeation and metabolism of inocoterone acetate solution are shown.

[4] = Carbopol 940 gel: inocoterone acetate 10.0, butyl laurate 6.0, ethanol 50.0% w/w
[5] = Carbopol 940 gel: inocoterone acetate 10.0, ethyl laurate 6.0, ethanol 50.0% w/w
[6] = Carbopol 940 gel: inocoterone acetate 10.0, isopropyl myristate 6.0, ethanol 50.0% w/w
[7] = vehicle 10% Butyl laurate-90% Ethanol
[8] = vehicle 10% Ethyl laurate-90% Ethanol
[9] = vehicle 10% Ethyl oleate-90% Ethanol
[10] = vehicle 10% Isopropyl palmitate-90% Ethanol
[11] = vehicle 10% Propyl laurate-90% Ethanol

Question: Which “hydrolysis in the blank receptor solution” value [1] does the source give for `CCC1=C2CC[C@]3(C)[C@@H](OC(C)=O)CC[C@H]3[C@@H]2CCC1=O` [Inocoterone acetate, 3β-acetoxy-6-ethyl-3αβ-methyl-1,2,3,3a, 4,5,8,9,9a,9b-decahydro-7H-benz(e)inden-7-one] here?
Answer: No significant hydrolysis

Question: What about the “inhibition of testosterone-induced increase in volume density of smooth endoplasmic reticulum vesicles in intermediate cells of sebaceous gland” value (rat sebaceous gland; 40% isopropyl myristate-60% ethanol, 0.5 mg/cm^2/day, 5 days, 5 cm^2, testosterone propionate-treated castrated rats) of the same compound?
Answer: completely inhibited

Question: And the “inhibition of the effects of testosterone on the sebaceous gland” value (rat sebaceous gland; ethanol vehicle, 0.5 mg/cm^2/day, 5 days, 5 cm^2, testosterone propionate-treated castrated rats)?
Answer: 60%

Question: What about the “volume density of smooth endoplasmic reticulum (SER)” value (rat sebaceous gland; intact rats and castrated rats stimulated with testosterone propionate, topical, 0.25 to 25 mg/rat/day, 1 to 3 weeks) of the same compound?
Answer: dose related reduction in volume density of SER

Question: And the “efficacy in isopropyl myristate-ethanol mixture” value (rat sebaceous gland; isopropyl myristate-ethanol mixture compared with ethanol)?
Answer: greater efficacy

Question: What about the “Transdermal Flux Q1, Inocoterone Acetate” value [2, 4] of the same compound?
Answer: 45.2 × 10^2 μmoles/cm^2 /5 hours

Question: And the “Transdermal Flux Q1, Total Inocoterone” value [2, 4]?
Answer: 111.4 × 10^2 μmoles/cm^2 /5 hours

Question: And the “Transdermal Flux Q1, Inocoterone Acetate” value [2, 5]?
Answer: 38.4 × 10^2 μmoles/cm^2 /5 hours

Question: What about the “Transdermal Flux Q1, Total Inocoterone” value [2, 5] of the same compound?
Answer: 91.1 × 10^2 μmoles/cm^2 /5 hours

Question: What about the “Transdermal Flux Q1, Inocoterone Acetate” value [2, 6] of the same compound?
Answer: 36.2 × 10^2 μmoles/cm^2 /5 hours

Question: And the “Transdermal Flux Q1, Total Inocoterone” value [2, 6]?
Answer: 99.0 × 10^2 μmoles/cm^2 /5 hours

Question: What about the metabolised at 5 h [2, 4] of the same compound?
Answer: 59.4%

Question: And the metabolised at 5 h [2, 5]?
Answer: 57.8%

Question: What about the metabolised at 5 h [2, 6] of the same compound?
Answer: 63.4%

Question: And the “effect on prostate weight” value (prostate; intact and castrated testosterone propionate-treated rats, topical, any dose (0.25 to 25 mg/rat/day))?
Answer: no significant effect on prostate weight at any dose

Question: And the “systemic antiandrogenic effect as evidenced by changes in the prostate” value (prostate; isopropyl myristate-ethanol mixture, topical 0.5 mg/cm^2/day, 5 days, testosterone propionate-treated castrated rats)?
Answer: resulted in a systemic anfiandrogenic effect

Question: What about the transcutaneous penetration ([3]; isopropyl myristate-ethanol mixture, Example 3) of the same compound?
Answer: increased transcutaneous penetration

Question: What about the metabolised at 5 h [3, 7] of the same compound?
Answer: 57.7%

Question: And the metabolised at 5 h [3, 8]?
Answer: 67.5%

Question: What about the metabolised at 5 h [3, 9] of the same compound?
Answer: 66.4%

Question: And the metabolised at 5 h [3, 10]?
Answer: 74.5%

Question: What about the metabolised at 5 h [3, 11] of the same compound?
Answer: 70.2%

Question: And the metabolised at 5 h ([3]; vehicle Ethanol)?
Answer: 100%

Question: And the “Transdermal Flux Q1, Inocoterone Acetate” value [3, 7]?
Answer: 39.9 × 10^2 μmoles/cm^2 /5 hrs

Question: What about the “Transdermal Flux Q1, Total Inocoterone” value [3, 7] of the same compound?
Answer: 94.4 × 10^2 μmoles/cm^2 /5 hrs

Question: What about the “Transdermal Flux Q1, Inocoterone Acetate” value [3, 8] of the same compound?
Answer: 28.1 × 10^2 μmoles/cm^2 /5 hrs

Question: What about the “Transdermal Flux Q1, Total Inocoterone” value [3, 8] of the same compound?
Answer: 86.4 × 10^2 μmoles/cm^2 /5 hrs

Question: And the “Transdermal Flux Q1, Inocoterone Acetate” value [3, 9]?
Answer: 18.5 × 10^2 μmoles/cm^2 /5 hrs

Question: And the “Transdermal Flux Q1, Total Inocoterone” value [3, 9]?
Answer: 55.1 × 10^2 μmoles/cm^2 /5 hrs

Question: And the “Transdermal Flux Q1, Inocoterone Acetate” value [3, 10]?
Answer: 9.4 × 10^2 μmoles/cm^2 /5 hrs

Question: And the “Transdermal Flux Q1, Total Inocoterone” value [3, 10]?
Answer: 36.9 × 10^2 μmoles/cm^2 /5 hrs

Question: And the “Transdermal Flux Q1, Inocoterone Acetate” value [3, 11]?
Answer: 25.8 × 10^2 μmoles/cm^2 /5 hrs

Question: What about the “Transdermal Flux Q1, Total Inocoterone” value [3, 11] of the same compound?
Answer: 86.6 × 10^2 μmoles/cm^2 /5 hrs

Question: What about the “Transdermal Flux Q1, Inocoterone Acetate” value ([3]; vehicle Ethanol) of the same compound?
Answer: 0 × 10^2 μmoles/cm^2 /5 hrs

Question: And the “Transdermal Flux Q1, Total Inocoterone” value ([3]; vehicle Ethanol)?
Answer: 1.1 × 10^2 μmoles/cm^2 /5 hrs

Question: For `CCC1=C2CC[C@]3(C)[C@@H](O)CC[C@H]3[C@@H]2CCC1=O` [Inocoterone, 6-ethyl-3αβ-methyl-1,2,3,3a,4,5,8,9,9a,9b-decahydro-7H-benz(e)inden-3-ol-7-one], which “Transdermal Flux Q1, Inocoterone” value [2, 4] is on record?
Answer: 66.2 × 10^2 μmoles/cm^2 /5 hours

Question: And the “Transdermal Flux Q1, Inocoterone” value [2, 5]?
Answer: 52.7 × 10^2 μmoles/cm^2 /5 hours

Question: And the “Transdermal Flux Q1, Inocoterone” value [2, 6]?
Answer: 62.8 × 10^2 μmoles/cm^2 /5 hours

Question: What about the “Transdermal Flux Q1, Inocoterone” value [3, 7] of the same compound?
Answer: 54.5 × 10^2 μmoles/cm^2 /5 hrs

Question: And the “Transdermal Flux Q1, Inocoterone” value [3, 8]?
Answer: 58.3 × 10^2 μmoles/cm^2 /5 hrs

Question: And the “Transdermal Flux Q1, Inocoterone” value [3, 9]?
Answer: 36.6 × 10^2 μmoles/cm^2 /5 hrs

Question: What about the “Transdermal Flux Q1, Inocoterone” value [3, 10] of the same compound?
Answer: 27.5 × 10^2 μmoles/cm^2 /5 hrs

Question: And the “Transdermal Flux Q1, Inocoterone” value [3, 11]?
Answer: 60.8 × 10^2 μmoles/cm^2 /5 hrs

Question: And the “Transdermal Flux Q1, Inocoterone” value ([3]; vehicle Ethanol)?
Answer: 1.1 × 10^2 μmoles/cm^2 /5 hrs

Source: patent US5482970A (priority 1993, dated 1996)
